Columns and labels:
anti-CYP mAb 2G7H9 = test: ic-ELISA based on mAb 2G7H9; assay type: binding, mouse; conditions: CR = IC50 of CYP/IC50 of analogue × 100%
Experimental: The ic-ELISA procedure was executed according to previous studies. Each well of the ELISA plate was coated with 100 μL of coating antigen diluted with carbonate buffer (0.05 mol/L, pH 9.6) at 4 °C overnight. After washing three times with phosphate-buffered saline (PBS, 0.01 mol/L, pH 7.4) containing 1‰ Tween-20, the wells were blocked with 200 μL of 5% skim milk powder in PBS at 37 °C for two hours. After the same washing procedure, 50 μL of CYP standard solution and 50 μL of mAb were pipetted into each well and incubated at 37 °C for one hour. After washing five times, 100 μL per well of 0.5‰ horseradish peroxidase-labeled goat anti-mouse IgG antibody in PBS was added and incubated at 37 °C for one hour. After the wells were washed five times, 100 μL per well of fresh substrate solution (0.1 mg/mL 3,3′,5,5′-tetramethylbenzidine and 0.024‰ H2O2 in 0.1 M citrate acid buffer) was added to react at 37 °C for 15 min. Then, 50 μL per well of 0.2 mol/L H2SO4 was used to stop the reaction, and the absorbances were read at 450 nm with a microplate reader.
Under the optimal conditions, a standard curve was constructed using a series of concentrations of standard solutions (50, 25, 12.5, 6.25, 3.13, 1.56, 0.78, 0.39 and 0.20 ng/mL) to assess the sensitivity of ic-ELISA. The IC50 and linear range (IC10–IC90) were calculated by a logistic equation established with Origin Pro 8.0.
The CRs of the ic-ELISA were calculated with the following equation:CR (%) = (IC50 of CYP/IC50 of analogues) × 100%.

anti-CYP mAb = test: colloidal gold LFIA strip; assay type: binding, mouse; conditions: for CR of LFIA: CR = vLOD of CYP/vLOD of analogue × 100%; for visual limit of detection (vLOD): optimal buffer
Experimental: Colloidal gold particles were synthesized with trisodium citrate as a reducing agent according to our previous work. For the preparation of colloidal gold mAb, 6.65 μg/mL anti-CYP mAbs were added to the colloidal gold solution adjusted to pH 8.2 using 0.2 mol/L K2CO3 with shaking at room temperature for 1 h. BSA (1%) was used to block free colloidal gold particles. After 1 h, the mixture was centrifuged at 12,000 revolutions per minute (RPM) for 15 min to remove free anti-CYP mAbs. The centrifuged deposits were resuspended using one-tenth of the original volume of sodium borate solution (0.01 mol/L) containing 2% BSA and 3% sucrose and preserved at 4 °C.
As depicted in Figure 1A, the LFIA strip was assembled into four components. The center section of a PVC plate was affixed to an NC membrane. The sample pad and absorption pad were stuck on both ends of the PVC plate, and both overlapped with the NC membrane by 1 mm. A total of 2 mg/mL of hapten 5-BSA and 0.5 mg/mL of GAMA were sprayed onto the NC membrane as the test line and control line, respectively, with 5 mm intervals by an automatic dispenser. After drying at 37 °C for 12 h, the fabricated cards were cut into 4 mm wide LFIA strips.
One hundred microliters of the CYP standard solution and 4 μL of the colloidal gold mAb solution were added into a micropore and mixed. After 5 min, an LFIA strip was inserted into the mixture solution. During the mixed solution migration from the sample pad to the absorbent pad, colloidal gold mAb was captured by the T and C lines, resulting in the appearance of color bands within 10 min. When the T line disappeared or the color intensity of the T line was lower than that of the C line, the result was positive (Figure 1B,C). When the color intensity of the T line was not less than that of the C line, the result was negative (Figure 1D).
The sensitivity of the LFIA strip was evaluated by a series of CYP standard solutions (0.7, 0.6, 0.5, 0.4, 0.3, 0.2, 0.1, 0 μg/mL). For qualitative analysis, the sensitivity of the LFIA strip was appraised by the visual LOD (vLOD) and the cut-off value. The vLOD is the lowest concentration of CYP at which the lighter color of the T line is observed compared to the C line. The cut-off value is the minimum CYP concentration at which no color band appears on the T line.
The CRs of the LFIA were calculated with the following equation:CR (%) = (vLOD of CYP/vLOD of analogues) × 100%.

Q: How did the “Cross-reactivity rate (%) of ic-ELISA” value (anti-CYP mAb 2G7H9) turn out when `CC1(C)C(C=C(Cl)Cl)C1C(=O)OC(C#N)c1ccc(F)c(Oc2ccccc2)c1` (stereo not drawn) [cyfluthrin] was run?
A: 31.09%

Q: And the “CR of LFIA” value (anti-CYP mAb)?
A: 30%

Q: What about the “visual limit of detection (vLOD)” value (anti-CYP mAb) of the same compound?
A: 1 µg/mL

Q: How did the “Cross-reactivity rate (%) of ic-ELISA” value (anti-CYP mAb 2G7H9) turn out when `CC1(C)C(/C=C(\Cl)C(F)(F)F)C1C(=O)OC(C#N)c1cccc(Oc2ccccc2)c1` (stereo not drawn) [cyhalothrin] was run?
A: 16.15%

Q: What about the “CR of LFIA” value (anti-CYP mAb) of the same compound?
A: 3%

Q: And the “visual limit of detection (vLOD)” value (anti-CYP mAb)?
A: 10 µg/mL

From paper PMC9688530, “Development of Ic-ELISA and Colloidal Gold Lateral Flow Immunoassay for the Determination of Cypermethrin in Agricultural Samples” (Biosensors, 2022)
